Results on eight molecules are retold here after ChEMBL document CHEMBL5230143, “Inhibitors of gelatinases (MMP-2 and MMP-9) for the management of hematological malignancies” (Eur J Med Chem, 2021).

Series [1] addresses T1, Matrix metalloproteinase-9 (Homo sapiens, UniProt P14780). The series can be described thus: Binding affinity to human MMP-9 assessed as residence time.
Series [2] has as its target T2, 72 kDa type IV collagenase (Homo sapiens, UniProt P08253). The series can be described thus: Inhibition of MMP-2 (unknown origin) assessed as inhibition constant.
Series [3] addresses T1, Matrix metalloproteinase-9. As to the kind of experiment: Inhibition of MMP-9 (unknown origin) assessed as inhibition constant.
Series [4] concerns the target T3, Neutrophil collagenase (Homo sapiens, UniProt P22894). The series can be described thus: Inhibition of MMP-8 (unknown origin) assessed as inhibition constant.
The target of series [5] is Stromelysin-1 (Homo sapiens, UniProt P08254). The series can be described thus: Inhibition of human recombinant MMP-3 assessed as inhibition constant.
Chain of Stromelysin-1 (P08254 whole entry): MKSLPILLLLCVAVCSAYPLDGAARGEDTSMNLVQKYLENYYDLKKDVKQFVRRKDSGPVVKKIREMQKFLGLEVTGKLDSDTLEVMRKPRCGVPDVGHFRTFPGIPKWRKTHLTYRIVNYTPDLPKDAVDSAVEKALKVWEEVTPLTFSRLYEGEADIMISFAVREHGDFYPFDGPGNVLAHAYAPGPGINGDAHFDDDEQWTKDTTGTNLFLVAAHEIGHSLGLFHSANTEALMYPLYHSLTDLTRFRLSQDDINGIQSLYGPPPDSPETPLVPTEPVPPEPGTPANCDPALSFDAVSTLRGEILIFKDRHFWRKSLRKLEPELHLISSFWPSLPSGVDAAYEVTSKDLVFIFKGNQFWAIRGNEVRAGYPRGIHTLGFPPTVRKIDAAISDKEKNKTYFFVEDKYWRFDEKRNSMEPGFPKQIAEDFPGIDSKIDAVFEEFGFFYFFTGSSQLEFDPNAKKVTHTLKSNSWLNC
Series [6] in a line: physchem. Conditions: water.
Description: Solubility of the compound in water
Series [7] concerns the target T4, Interstitial collagenase (Homo sapiens, UniProt P03956).
T4 sequence (P03956 whole entry): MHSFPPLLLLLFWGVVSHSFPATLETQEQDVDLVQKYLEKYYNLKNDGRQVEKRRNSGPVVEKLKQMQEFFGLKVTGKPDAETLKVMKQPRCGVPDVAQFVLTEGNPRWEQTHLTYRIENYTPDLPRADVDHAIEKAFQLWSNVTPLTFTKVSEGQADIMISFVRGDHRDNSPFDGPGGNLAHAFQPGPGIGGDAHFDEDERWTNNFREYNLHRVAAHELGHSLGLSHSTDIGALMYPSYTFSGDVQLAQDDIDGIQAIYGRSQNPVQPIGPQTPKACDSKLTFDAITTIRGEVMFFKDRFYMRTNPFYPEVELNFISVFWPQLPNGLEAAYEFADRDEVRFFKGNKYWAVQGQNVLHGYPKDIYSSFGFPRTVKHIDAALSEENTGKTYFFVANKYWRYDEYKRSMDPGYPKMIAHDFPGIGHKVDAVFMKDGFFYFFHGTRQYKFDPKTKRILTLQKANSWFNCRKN
The series can be described thus: Inhibition of MMP-1 (unknown origin).

The target of series [8] is T2, 72 kDa type IV collagenase. The series can be described thus: Inhibition of MMP-2 (unknown origin).
For series [9], the target named is T1, Matrix metalloproteinase-9. As to the kind of experiment: Inhibition of MMP-9 (unknown origin).
In series [10] the target is Matrix metalloproteinase-14 (Homo sapiens, UniProt P50281). The series can be described thus: Inhibition of MMP-14 (unknown origin).
In series [11] the target is T3, Neutrophil collagenase. The series can be described thus: Inhibition of MMP-8 (unknown origin).
The target in series [12] is Macrophage metalloelastase (Homo sapiens, UniProt P39900). The series can be described thus: Inhibition of MMP-12 (unknown origin).
Chain of Macrophage metalloelastase (P39900 whole entry): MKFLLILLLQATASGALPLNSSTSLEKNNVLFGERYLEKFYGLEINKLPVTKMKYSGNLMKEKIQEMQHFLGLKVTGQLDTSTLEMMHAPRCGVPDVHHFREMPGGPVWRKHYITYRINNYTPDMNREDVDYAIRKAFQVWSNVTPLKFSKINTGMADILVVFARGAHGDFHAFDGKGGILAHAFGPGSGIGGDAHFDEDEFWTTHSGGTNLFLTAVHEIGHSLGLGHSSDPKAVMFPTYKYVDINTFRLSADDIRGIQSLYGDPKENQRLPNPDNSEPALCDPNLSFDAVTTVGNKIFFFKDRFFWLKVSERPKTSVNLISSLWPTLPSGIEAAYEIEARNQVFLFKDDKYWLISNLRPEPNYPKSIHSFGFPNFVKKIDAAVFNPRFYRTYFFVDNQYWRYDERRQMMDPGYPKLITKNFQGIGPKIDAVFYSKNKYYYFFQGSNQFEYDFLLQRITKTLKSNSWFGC
The target in series [13] is T5, Histone deacetylase 8 (Homo sapiens, UniProt Q9BY41).
T5 sequence (Q9BY41 whole entry): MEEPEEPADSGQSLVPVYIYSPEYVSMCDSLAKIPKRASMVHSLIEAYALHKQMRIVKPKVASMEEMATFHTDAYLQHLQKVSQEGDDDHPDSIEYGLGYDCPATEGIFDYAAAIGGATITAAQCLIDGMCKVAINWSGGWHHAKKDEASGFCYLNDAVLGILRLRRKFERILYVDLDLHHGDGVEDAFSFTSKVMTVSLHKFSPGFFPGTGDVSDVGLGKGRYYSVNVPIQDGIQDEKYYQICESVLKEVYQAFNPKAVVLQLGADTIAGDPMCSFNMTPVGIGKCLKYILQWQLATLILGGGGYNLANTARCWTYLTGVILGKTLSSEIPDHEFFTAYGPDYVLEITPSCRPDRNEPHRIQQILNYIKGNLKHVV
As to the kind of experiment: Inhibition of HDAC-8 (unknown origin).

Series [14] concerns Jurkat E6.1. As to the kind of experiment: Cytotoxicity against human Jurkat E6.1 cells incubated for 48 hrs by MTT assay. Conditions: Jurkat E6.1, 48 h. It is filed as functional, cell-based. (In general: Tetrazolium dyes change colour on reduction, which living cells bring about.)
In series [15] the test system is U-937. The series can be described thus: Cytotoxicity against human U-937 cells incubated for 48 hrs by MTT assay. Type of series: functional, cell-based. Conditions: U-937, 48 h.
Series [16] has as its system MOLT-4. As to the kind of experiment: Cytotoxicity against human MOLT-4 cells incubated for 48 hrs by MTT assay. It is filed as functional, cell-based. Conditions: MOLT-4, 48 h.
The test system of series [17] is Jurkat E6.1. The series can be described thus: Induction of apoptosis in human Jurkat E6.1 assessed as reduction in MMP-2 expression at 2 uM measured after 48 hrs by annexin V-FITC/propidium iodide staining based flow cytometry analysis relative to control. Type of series: functional. More on the design: scale not given: the % may be the effect or the level left. (A flow cytometer gives signals particle by particle.)

The test system of series [18] is Jurkat E6.1. As to the kind of experiment: Induction of apoptosis in human Jurkat E6.1 assessed as reduction in MMP-2 expression at 5 uM measured after 48 hrs by annexin V-FITC/propidium iodide staining based flow cytometry analysis relative to control. Type of series: functional. Also on record: scale not given: the % may be the effect or the level left.
Series [19] concerns Jurkat E6.1. The series can be described thus: Induction of apoptosis in human Jurkat E6.1 assessed as reduction in HDAC-8 expression at 2 uM measured after 48 hrs by annexin V-FITC/propidium iodide staining based flow cytometry analysis relative to control. Type of series: functional. More on the design: scale not given: the % may be the effect or the level left.
Series [20] concerns Jurkat E6.1. As to the kind of experiment: Induction of apoptosis in human Jurkat E6.1 assessed as reduction in HDAC-8 expression at 5 uM measured after 48 hrs by annexin V-FITC/propidium iodide staining based flow cytometry analysis relative to control. More on the design: scale not given: the % may be the effect or the level left. Type of series: functional.
In series [21] the test system is Jurkat E6.1. The series can be described thus: Induction of apoptosis in human Jurkat E6.1 assessed as reduction in MMP-2 expression at 10 uM measured after 48 hrs by annexin V-FITC/propidium iodide staining based flow cytometry analysis relative to control. Type of series: functional. More on the design: scale not given: the % may be the effect or the level left.

In series [22] the test system is Jurkat E6.1. As to the kind of experiment: Induction of apoptosis in human Jurkat E6.1 assessed as reduction in MMP-2 expression at 20 uM measured after 48 hrs by annexin V-FITC/propidium iodide staining based flow cytometry analysis relative to control. Type of series: functional. Also on record: scale not given: the % may be the effect or the level left.
For series [23], the system named is Jurkat E6.1. The series can be described thus: Induction of apoptosis in human Jurkat E6.1 assessed as reduction in HDAC-8 expression at 10 uM measured after 48 hrs by annexin V-FITC/propidium iodide staining based flow cytometry analysis relative to control. Type of series: functional. More on the design: scale not given: the % may be the effect or the level left.

For series [24], the system named is Jurkat E6.1. The series can be described thus: Induction of apoptosis in human Jurkat E6.1 assessed as reduction in HDAC-8 expression at 20 uM measured after 48 hrs by annexin V-FITC/propidium iodide staining based flow cytometry analysis relative to control. It is filed as functional. Also on record: scale not given: the % may be the effect or the level left.

Series [25] deals with T6, Matrilysin (Homo sapiens, UniProt P09237).
T6 sequence (P09237 whole entry): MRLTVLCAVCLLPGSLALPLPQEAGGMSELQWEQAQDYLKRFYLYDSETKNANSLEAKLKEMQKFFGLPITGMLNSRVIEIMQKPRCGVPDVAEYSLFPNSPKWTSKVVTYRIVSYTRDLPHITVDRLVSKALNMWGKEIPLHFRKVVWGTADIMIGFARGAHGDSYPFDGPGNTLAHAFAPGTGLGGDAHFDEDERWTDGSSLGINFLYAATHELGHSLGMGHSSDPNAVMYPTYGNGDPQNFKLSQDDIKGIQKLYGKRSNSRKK
The series can be described thus: Inhibition of MMP-7 (unknown origin).

For series [26], the target named is T4, Interstitial collagenase. As to the kind of experiment: Inhibition of MMP-1 (unknown origin) assessed as inhibition constant.

pIC50, pKi: −log10 of the molar value. A value given as a limit tells only on which side of the number the result lay.

T1 sequence (P14780 whole entry): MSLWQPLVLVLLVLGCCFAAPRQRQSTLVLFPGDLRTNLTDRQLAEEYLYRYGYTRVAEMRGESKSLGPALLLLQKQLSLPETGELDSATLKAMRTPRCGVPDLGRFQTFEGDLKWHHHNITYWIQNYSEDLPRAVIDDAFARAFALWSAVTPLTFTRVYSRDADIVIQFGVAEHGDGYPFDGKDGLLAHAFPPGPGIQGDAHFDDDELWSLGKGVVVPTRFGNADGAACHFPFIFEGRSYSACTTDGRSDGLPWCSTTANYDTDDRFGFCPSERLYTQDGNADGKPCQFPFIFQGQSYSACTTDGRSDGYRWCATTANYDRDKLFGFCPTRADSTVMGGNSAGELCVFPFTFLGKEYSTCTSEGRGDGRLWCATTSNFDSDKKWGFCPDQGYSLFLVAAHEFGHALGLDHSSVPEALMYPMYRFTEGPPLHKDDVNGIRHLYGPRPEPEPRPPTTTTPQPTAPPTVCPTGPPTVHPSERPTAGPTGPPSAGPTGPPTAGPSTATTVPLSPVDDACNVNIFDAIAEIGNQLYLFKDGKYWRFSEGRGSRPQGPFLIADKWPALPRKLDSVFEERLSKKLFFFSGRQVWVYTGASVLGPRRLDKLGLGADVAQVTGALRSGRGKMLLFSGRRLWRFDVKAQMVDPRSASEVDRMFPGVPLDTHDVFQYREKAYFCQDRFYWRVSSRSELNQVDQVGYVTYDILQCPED
T2 sequence (P08253 whole entry): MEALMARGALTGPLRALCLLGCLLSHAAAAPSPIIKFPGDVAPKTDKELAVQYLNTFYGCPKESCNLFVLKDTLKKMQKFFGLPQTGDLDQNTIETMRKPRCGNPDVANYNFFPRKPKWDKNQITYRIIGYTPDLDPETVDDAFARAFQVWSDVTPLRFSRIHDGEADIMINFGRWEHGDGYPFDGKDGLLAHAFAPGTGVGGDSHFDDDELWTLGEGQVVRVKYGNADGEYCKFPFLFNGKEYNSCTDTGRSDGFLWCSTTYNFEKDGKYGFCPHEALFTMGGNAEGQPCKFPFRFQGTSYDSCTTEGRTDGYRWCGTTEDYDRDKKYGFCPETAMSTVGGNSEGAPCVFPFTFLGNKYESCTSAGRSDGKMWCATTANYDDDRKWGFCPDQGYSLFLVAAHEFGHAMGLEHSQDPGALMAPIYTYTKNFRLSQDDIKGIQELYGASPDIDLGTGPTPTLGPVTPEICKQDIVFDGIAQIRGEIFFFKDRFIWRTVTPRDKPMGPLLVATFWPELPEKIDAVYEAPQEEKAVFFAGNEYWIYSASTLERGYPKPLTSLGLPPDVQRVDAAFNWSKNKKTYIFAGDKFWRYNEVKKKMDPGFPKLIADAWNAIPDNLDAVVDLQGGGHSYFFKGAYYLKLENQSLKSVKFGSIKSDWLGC
T3 sequence (P22894 whole entry): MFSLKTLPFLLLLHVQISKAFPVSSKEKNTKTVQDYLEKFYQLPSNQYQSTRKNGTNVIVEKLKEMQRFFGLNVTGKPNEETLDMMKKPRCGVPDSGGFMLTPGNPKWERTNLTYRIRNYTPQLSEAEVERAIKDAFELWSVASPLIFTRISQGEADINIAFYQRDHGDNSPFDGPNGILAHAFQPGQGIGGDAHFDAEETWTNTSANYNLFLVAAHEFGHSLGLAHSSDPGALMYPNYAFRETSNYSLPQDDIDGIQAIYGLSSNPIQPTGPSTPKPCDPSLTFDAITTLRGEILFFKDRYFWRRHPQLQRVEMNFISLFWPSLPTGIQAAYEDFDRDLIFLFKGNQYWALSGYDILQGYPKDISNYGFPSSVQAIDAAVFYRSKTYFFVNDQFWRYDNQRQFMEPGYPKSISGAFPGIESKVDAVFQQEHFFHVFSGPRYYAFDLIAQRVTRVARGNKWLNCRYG

`O=S(=O)(CC1CS1)c1ccc(Oc2ccccc2)cc1` (stereo not drawn): in series [1], the TIME was found to be 0.223 h.

As a reminder, the pKi is the negative decadic logarithm of the Ki, by convention in mol/L. Regarding `CN1C(=O)N(C[C@H](C(=O)NO)[C@H](CC2CCCC2)C(=O)N2CCCCC2)C(=O)C1(C)C`, the pKi is 6.81 in [2], 7.23 in [3] and 8.36 in series [4].

As to `COc1ccc(S(=O)(=O)N(Cc2ccccc2)[C@@H](C(=O)NO)C(C)C)cc1`, the pKi in series [5] is 7.37.

A word on the solubility: it is how much of the substance goes into solution per volume. On to `N=C(N)NCCC[C@H](N)C(=O)Nc1ccc(Oc2ccc(S(=O)(=O)CC3CS3)cc2)cc1` (stereo partly drawn), for which the solubility in series [6] was > 10000 µg/mL.

As usually defined, the pIC50 is −log10 of the IC50, conventionally taken in molar units. For the molecule `O=C(O)CCC(NC(=O)Cc1ccc(Br)cc1)C(=O)NCc1ccc([N+](=O)[O-])cc1` (stereo not drawn), the pIC50 is < 3.60 in [7]; 5.19 in [8]; 5.32 in series [9]; 4.25 in [10]; 3.69 in series [11]; 3.86 in series [12]. Besides, the negative logarithm of the IC50 (pIC50) in series [13] was 5.54; in [14] it was 5.56; in [15], 4.98; in series [16], 5.34. Besides, the Activity in series [17] stood at 46%; in [18], 70%; in series [19], 48%; in series [20] it was 68%.

For `CC(C)NC(=O)C(CCC(=O)O)NC(=O)Cc1ccc(Cl)cc1` (stereo not drawn), the pIC50 in series [14] was 4.94; in series [15], 4.53; in series [16], 4.93. Moreover, the Activity worked out at 42% in [21], 58% in series [22], 32% in [23] and 58% in series [24].

As for `CNC(=O)[C@@H](NC(=O)[C@H](CC(C)C)NC(=O)[C@@H](S)CCN1C(=O)N(C)C(C)(C)C1=O)C(C)(C)C` [REBIMASTAT], the negative-log IC50 (pIC50) in series [7] is 8.05; in [8], 7.41; in [9], 7.57; in series [10] it was 7.40; in [25] it was 7.64.

On to `O=C(C[C@H](CSc1ccccc1)C(=O)O)c1ccc(-c2ccc(Cl)cc2)cc1` [TANOMASTAT], for which the pKi in series [26] is < 5.30.
